According to patent publication EP4316456A1, “BIOLOGICALLY ACTIVE QUADROCOMPLEX FOR REGULATING THE BIODIVERSITY OF SKIN MICROBIOTA” (SkyLab AG, priority 2021, dated 2022):

Assays:
[1] = octanol to water; average logP for the essential oil; source not stated; cited from earlier work
Staphylococcus aureus [2] = test: Effect of antibacterial basic samples on growth of hand skin microflora, double dilution method; type: cell-based; parameters: key: ++: no growth; +: depressed growth in most areas; +: retarded growth in some areas; confluent growth-of test microorganisms; conditions: 5% solution of sample in purified water with 0.5% Tween 80, 30 minutes; 48 hours at 37 degrees Celsius
Procedure: (§1) A mixture consisting of purified water and 0.5% Tween 80 was used as a base to include the components of the complex. Samples were prepared using a magnetic stirrer by solubilizing the components of the quad complex in Tween 80 and gradually introducing them into purified water at 350 rpm. The stability of the samples was evaluated visually, by the absence of separation of the fatty phase from the aqueous solution. 2 strains of microorganisms of normal microflora, widely represented on the skin of the hands, were selected: Staphylococcus epidermidis and Micrococcus luteus. Microorganisms of transient opportunistic microflora present on the skin of the hands were also selected: Staphylococcus aureus, Escherichia coli and fungi of Candida albicans genus. Microorganisms were obtained by washing from the skin of the hands of subjects or using standard strains, cultivating isolated microorganisms and counting the number of grown colonies of microorganisms. The method of the analysis is based on the double dilution method and consists in preparing a suspension of bacterial cells of selected microorganisms (S. aureus, E. coli, C. albicans, S. epidermidis, M. luteus) separately at a concentration of 1×10^9 cells/ml. Next, 0.2 ml of a suspension of bacterial cells is added to 1.8 ml of a 5% solution of antibacterial components. In 30 minutes, 1 ml of the resulting mixture is added to a test tube with 9 ml of sterile saline 0.9%. In 15 more minutes, a series of dilutions is prepared in sterile saline to a concentration of 10^3 cells/ml. 0.1 ml of a solution of the initial concentration and successive dilutions is added to the surface of cups with a special nutrient medium for the growth of selected microorganisms separately. The cultures are incubated for 48 hours at 37 degrees Celsius and the colonies are counted by the standard method. The parameter for the overall assessment of the effect of the biologically active quad complex on the growth of representatives of the normal microflora was the presence or no growth of microorganisms, determined by the microbiologist based on the results of the study. The indicator of bacterial growth allows evaluating the effect of microflora on microorganisms and drawing a conclusion about the effect of the quad complex on the microflora of hand skin. The general positive trend in the use of the components of the claimed quad complex is the absence of a negative effect on the normal microflora of the skin of the hands and a pronounced antibacterial effect on the transient microflora, which will ensure the maintenance of natural non-pathogenic microflora for dermatological comfort and hygiene of hand skin.

Candida albicans [3] = test: as above; type: cell-based; parameters: key: ++: no growth; +: depressed growth in most areas; +: retarded growth in some areas; confluent growth-of test microorganisms; conditions: 5% solution of sample in purified water with 0.5% Tween 80, 30 minutes; 48 hours at 37 degrees Celsius
Procedure: as §1

Escherichia coli [4] = test: as above; type: cell-based; parameters: key: ++: no growth; +: depressed growth in most areas; +: retarded growth in some areas; confluent growth-of test microorganisms; conditions: 5% solution of sample in purified water with 0.5% Tween 80, 30 minutes; 48 hours at 37 degrees Celsius
Procedure: as §1

Micrococcus luteus [5] = test: as above; type: cell-based; parameters: key: ++: no growth; +: depressed growth in most areas; +: retarded growth in some areas; confluent growth-of test microorganisms; conditions: 5% solution of sample in purified water with 0.5% Tween 80, 30 minutes; 48 hours at 37 degrees Celsius
Procedure: as §1

[6] = tested on: Staphylococcus epidermidis; test: as above; type: cell-based; parameters: key: ++: no growth; +: depressed growth in most areas; +: retarded growth in some areas; confluent growth-of test microorganisms; conditions: 5% solution of sample in purified water with 0.5% Tween 80, 30 minutes; 48 hours at 37 degrees Celsius
Procedure: as §1

Staphylococcus aureus [7] = test: as above; type: cell-based; parameters: key: +: confluent growth-of test microorganisms as in the control; +: retarded or depressed growth; -: no growth; conditions: 5% solution of sample in purified water with 0.5% Tween 80, 30 minutes; 48 hours at 37 degrees Celsius
Procedure: as §1

Candida albicans [8] = test: as above; type: cell-based; parameters: key: +: confluent growth-of test microorganisms as in the control; +: retarded or depressed growth; -: no growth; conditions: 5% solution of sample in purified water with 0.5% Tween 80, 30 minutes; 48 hours at 37 degrees Celsius
Procedure: as §1

Escherichia coli [9] = test: as above; type: cell-based; parameters: key: +: confluent growth-of test microorganisms as in the control; +: retarded or depressed growth; -: no growth; conditions: 5% solution of sample in purified water with 0.5% Tween 80, 30 minutes; 48 hours at 37 degrees Celsius
Procedure: as §1

Micrococcus luteus [10] = test: as above; type: cell-based; parameters: key: +: confluent growth-of test microorganisms as in the control; +: retarded or depressed growth; -: no growth; conditions: 5% solution of sample in purified water with 0.5% Tween 80, 30 minutes; 48 hours at 37 degrees Celsius
Procedure: as §1

[11] = tested on: Staphylococcus epidermidis; test: as above; type: cell-based; parameters: key: +: confluent growth-of test microorganisms as in the control; +: retarded or depressed growth; -: no growth; conditions: 5% solution of sample in purified water with 0.5% Tween 80, 30 minutes; 48 hours at 37 degrees Celsius
Procedure: as §1

| Compound | logP [1] | growth of test-strain (Staphylococcus aureus [2]) | growth of test-strain (Candida albicans [3]) | growth of test-strain (Escherichia coli [4]) | growth of test-strain (Micrococcus luteus [5]) | growth of test-strain [6] | growth of test-strain (Staphylococcus aureus [7]) | growth of test-strain (Candida albicans [8]) | growth of test-strain (Escherichia coli [9]) | growth of test-strain (Micrococcus luteus [10]) | growth of test-strain [11] |
| --- | --- | --- | --- | --- | --- | --- | --- | --- | --- | --- | --- |
| CC12CCC(CC1)C(C)(C)O2 [1,8-cineol 0,15%, 1,8-cineol] | 2.82 | - | - | + | - | - |  |  |  |  |  |
| CC(C)=CCC[C@](C)(O)[C@@H]1CC=C(C)CC1 [Alpha-bisabolol 0,10%, alpha-bisabolol] | 3.80 | + | - | + | - | - |  |  |  |  |  |
| CCO [Ethyl alcohol 96%, Ethyl alcohol] |  |  |  |  |  |  | ++ | ++ | ++ | ++ | ++ |
| OO [Hydrogen peroxide 3%, Hydrogen peroxide] |  | + | + | + | + | + |  |  |  |  |  |
| Benzalkonium chloride [Benzalkonium chloride 0,1%] |  |  |  |  |  |  | ++ | ++ | ++ | ++ | ++ |
